Common to all, as to type: binding
Experiment [1] has as its target VcMshEN L10A/L58A.
Experiment [2] deals with VcMshEN G11L.
The test system of experiment [3] is VcMshEN L10A-L54A-L58A.
For experiment [4], the system named is VcMshEN_N G40I.
The subject of experiment [5] is VcMshEN_N G11L.
In experiment [6] the test system is VcMshEN_N L10A.
The subject of experiment [7] is VcMshEN_N L25A.
The subject of experiment [8] is VcMshEN_N L25A/L29A.
For experiment [9], the system named is VcMshEN_N L54A/L58A.
Experiment [10] has as its system VcMshEN_N L10A/L54A/L58A.

Consider `Nc1nc2c(ncn2[C@@H]2O[C@@H]3CO[P@](=O)(O)O[C@H]4[C@@H](O)[C@H](n5cnc6c(=O)[nH]c(N)nc65)O[C@@H]4CO[P@](=O)(O)O[C@H]3[C@H]2O)c(=O)[nH]1` [c-di-GMP, Cyclic dimeric GMP], for which the “Dissociation constant (KD)” value in [1] is given as “cannot bind c-di-GMP”; in experiment [2] it was “abrogated c-di-GMP binding”. In addition, the “Fold reduction of binding affinity” value in experiment [1] was above 100. For the same compound, the “c-di-GMP binding in vitro” value in [3] is reported as “abrogates the ability of VcMshEN to bind c-di-GMP”. For the same compound, the “Melting temperature Tm, + c-di-GMP” value in experiment [4] is recorded as 56 ºC; in experiment [5], 52 ºC; in experiment [6] it was 56 ºC; in experiment [7], 60 ºC; in [8], 59 ºC; in experiment [9], 54 ºC. For the same compound, the “Melting temperature Tm, + c-di-GMP” value in [10] is 53 ºC. Further, the “Tm Difference” value in [8] is listed as 9 ºC.

For the origin of these results see publication PMC5013675, “Nucleotide binding by the widespread high-affinity cyclic di-GMP receptor MshEN domain” (Nature Communications, 2016).
